Common to all, as to assay: DTP human tumour cell line panel, 48 h
Experiment [1] relates to SNB-19.
Experiment [2] concerns KM12.
Experiment [3] has as its system HCT-15.
The subject of experiment [4] is HCT-116.
The subject of experiment [5] is SR.
Experiment [6] has as its system SF-539.
Experiment [7] deals with SK-MEL-28.
Experiment [8] concerns K562.
Experiment [9] has as its system HOP-62.
The test system of experiment [10] is NCI-H522.
Experiment [11] has as its system HT-29.
In experiment [12] the test system is NCI-H23.
The test system of experiment [13] is OVCAR-8.
Experiment [14] relates to HOP-92.

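Assay format: 96-well plates, 48-hour exposure. GI50 = concentration required for 50% inhibition of growth.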 Active and inactive are the calls of the source. Cut-off read from the data, not from the text of the source: active = GI50 up to about 1.1 µM and inactive = higher. Some results are limits rather than exact numbers.

One may read the GI50 as the concentration at which growth is held to half of that of the control. `ClC1=C(Cl)C(Cl)(Cl)c2c3c(c4c(c21)C(Cl)(Cl)C(Cl)=C4Cl)C(Cl)(Cl)C(Cl)=C3Cl`: the GI50 is > 100 µM (inactive) in experiment [1]; > 100 µM (inactive) in experiment [2]; above 100 µM in experiment [3]; > 100 µM (inactive) in experiment [4]; > 100 µM (inactive) in [5]; > 100 µM (inactive) in experiment [6]. Also, the GI50 in experiment [7] is > 100 µM (inactive); in experiment [8], > 100 µM (inactive); in [9] it was > 100 µM (inactive); in experiment [10] it was 33.1 µM (inactive); in [11] it was > 100 µM (inactive); in experiment [12] it was > 100 µM (inactive). In addition, the GI50 in [13] was > 100 µM (inactive).

For `CS/C(=N/C(=O)c1ccccc1)SCCS/C(=N\C(=O)c1ccccc1)SC`, the GI50 in experiment [1] is > 100 µM (inactive); in experiment [2], > 100 µM (inactive); in experiment [3] it was above 100 µM; in experiment [4], > 100 µM (inactive); in [6], 65.5 µM (inactive); in [7] it was > 100 µM (inactive). Further, the GI50 in experiment [8] was > 100 µM (inactive); in experiment [9], 62.2 µM (inactive); in [14] it was 20 µM (inactive); in experiment [10], 69.2 µM (inactive); in experiment [11], > 100 µM (inactive); in experiment [12], > 100 µM (inactive). Moreover, in experiment [13], the GI50 was > 100 µM (inactive).

Regarding `O=C(Cc1nc2ccccc2o1)C(=O)Nc1ccc(Cl)cc1Cl`, the GI50 in [1] was > 100 µM (inactive); in [3], above 100 µM; in [4], > 100 µM (inactive); in experiment [5], 13.1 µM (inactive); in experiment [6], > 100 µM (inactive); in [7], > 100 µM (inactive). The GI50 in experiment [8], in experiment [9], in experiment [14], in experiment [11], in [12] and in [13] was > 100 µM (inactive) each time.

Regarding `CC(=O)NC(CCCCNC(=O)OCc1ccccc1)C(=O)NCc1ccccc1` (centres undefined), the GI50 is > 100 µM (inactive) in experiment [1]; > 100 µM (inactive) in [2]; above 100 µM in [3]; > 100 µM (inactive) in experiment [4]; > 100 µM (inactive) in experiment [6]; > 100 µM (inactive) in [7]. Moreover, the GI50 in experiment [8], in experiment [9], in experiment [14], in experiment [10], in experiment [11] and in [12] was > 100 µM (inactive) throughout. Besides, in experiment [13], the GI50 is > 100 µM (inactive).

For `CC(C)c1cccc(C(C)C)c1N1C(=O)C(=O)C(c2nc3ccccc3o2)C(=O)C1=O`, the GI50 in experiment [1] is > 100 µM (inactive); in [2], > 100 µM (inactive); in experiment [3], 49.7 µM; in experiment [4] it was 25.8 µM (inactive); in [6], > 100 µM (inactive); in experiment [7], 32.7 µM (inactive). Further, the GI50 in experiment [8] was 28.2 µM (inactive); in experiment [9] it was > 100 µM (inactive); in experiment [14], 33.3 µM (inactive); in [10] it was 19.5 µM (inactive); in [11], 30.3 µM (inactive); in experiment [12], 29.6 µM (inactive). Further, the GI50 in experiment [13] is > 100 µM (inactive).

With `COC(=O)C1=C(SC)SC2(C(=O)OC)C3C=C(C)C4C(N13)C42C(=O)OC` (centres undefined), the GI50 in experiment [1] was > 100 µM (inactive); in experiment [3], above 100 µM; in experiment [4] it was > 100 µM (inactive); in experiment [5], > 100 µM (inactive); in experiment [6] it was > 100 µM (inactive); in experiment [7], > 100 µM (inactive). Also, the GI50 in experiment [8], in experiment [9], in [10], in experiment [11], in [12] and in [13] was > 100 µM (inactive) in each case.

Regarding `CC(=O)NN1C(=O)C(Cc2ccccc2)c2ccccc21` (centres undefined), the GI50 in experiment [1] was > 100 µM (inactive); in experiment [2] it was > 100 µM (inactive); in experiment [3], above 100 µM; in experiment [4], > 100 µM (inactive); in experiment [6], > 100 µM (inactive); in [7], > 100 µM (inactive). Further, the GI50 in experiment [8], in experiment [9], in [14], in experiment [11], in [12] and in experiment [13] was > 100 µM (inactive) throughout.

On to `Nc1ccc(C(=O)NN2C(=O)C(Cl)C2c2ccccc2)cc1` (centres undefined), for which the GI50 in experiment [1] is > 100 µM (inactive); in experiment [2], > 100 µM (inactive); in experiment [3] it was above 100 µM; in experiment [4], > 100 µM (inactive); in experiment [6], > 100 µM (inactive); in [7] it was > 100 µM (inactive). The GI50 in [8], in experiment [9], in experiment [14], in experiment [10], in experiment [11] and in experiment [12] was > 100 µM (inactive) in each case. The GI50 in [13] was > 100 µM (inactive).

Regarding `CC(=O)O[C@H]1CCC2[C@@H]3CCC4C(=O)c5oncc5C[C@]4(C)C3CC[C@@]21C` (some centres undefined), the GI50 in experiment [1] is > 10 µM (inactive); in experiment [2], > 100 µM (inactive); in [3], above 100 µM; in experiment [4], > 10 µM (inactive); in [6] it was > 10 µM (inactive); in experiment [7], > 100 µM (inactive). Besides, the GI50 in experiment [8], in experiment [9], in experiment [14], in [11], in experiment [12] and in experiment [13] was > 100 µM (inactive) each time.

Consider `CC(C)(C)c1ccc2c(c1)S(=O)(=O)Nc1ccccc1NS(=O)(=O)c1cc(C(C)(C)C)ccc1OCCOCCOCCO2`, for which the GI50 in [1] was > 100 µM (inactive); in experiment [2], > 100 µM (inactive); in experiment [3] it was above 100 µM; in experiment [4], > 100 µM (inactive); in [6], 40 µM (inactive); in experiment [7] it was > 100 µM (inactive). In addition, the GI50 in experiment [8] is > 100 µM (inactive); in [9] it was > 100 µM (inactive); in experiment [14], 85.3 µM (inactive); in experiment [11], > 100 µM (inactive); in experiment [12], > 100 µM (inactive); in [13] it was 70 µM (inactive).

Turning to `OCCCc1cnco1`, the GI50 in [1] was > 100 µM (inactive); in experiment [2], > 100 µM (inactive); in experiment [3], above 100 µM; in experiment [4] it was > 100 µM (inactive); in [5] it was > 100 µM (inactive); in [6], > 100 µM (inactive). For the same compound, the GI50 in experiment [7], in [8], in [9], in experiment [14], in experiment [11] and in experiment [12] was > 100 µM (inactive) in each case. For the same compound, in [13], the GI50 is > 100 µM (inactive).

Turning to `CCOC(=O)Nc1ccc(S(=O)(=O)I)cc1.CCOC(=O)Nc1ccc(S(=O)(=O)I)cc1.CNC(=O)N=O.NC(=O)OCCCl`, the GI50 in experiment [1] was > 100 µM (inactive); in [2] it was > 100 µM (inactive); in [3] it was 70.8 µM; in experiment [4], > 100 µM (inactive); in [5], > 100 µM (inactive); in experiment [6] it was > 100 µM (inactive). For the same compound, the GI50 is 67 µM (inactive) in experiment [7]; 40 µM (inactive) in experiment [8]; 46.7 µM (inactive) in experiment [9]; 40.5 µM (inactive) in [14]; 69 µM (inactive) in experiment [11]; > 100 µM (inactive) in [12]. For the same compound, in experiment [13], the GI50 is > 100 µM (inactive).

Turning to `N/C(=N\O)N/N=C\c1c2ccccc2c(Cl)c2ccccc12`, the GI50 in experiment [1] was 11.9 µM (inactive); in experiment [2], 4.85 µM (inactive); in experiment [3], 5.82 µM; in [4] it was 3.66 µM (inactive); in [6], 9.62 µM (inactive); in [7] it was 13.5 µM (inactive). Further, the GI50 in experiment [8] was 3.72 µM (inactive); in [9] it was 10.5 µM (inactive); in experiment [14], 3.16 µM (inactive); in [10], 3.8 µM (inactive); in [11], 3.78 µM (inactive); in experiment [12] it was 5.04 µM (inactive). In experiment [13], the GI50 is 4.08 µM (inactive).

For the compound `O=C1c2ccccc2C2(O)c3cc4ccccc4cc3OC12O` (centres undefined), the GI50 was 31.2 µM (inactive) in experiment [1]; 46.8 µM (inactive) in [2]; 53.2 µM in experiment [3]; 69 µM (inactive) in [4]; > 100 µM (inactive) in experiment [6]; 59.3 µM (inactive) in experiment [7]. For the same compound, the GI50 in experiment [8] is 46 µM (inactive); in experiment [9] it was 83.8 µM (inactive); in experiment [14], 27.6 µM (inactive); in experiment [10], 40.9 µM (inactive); in experiment [11] it was > 100 µM (inactive); in [12], 55.6 µM (inactive). In addition, in experiment [13], the GI50 was 58.1 µM (inactive).

Regarding `C=CCNC(=O)ON1C(=O)CCC1=O`, the GI50 was > 100 µM (inactive) in experiment [1]; > 100 µM (inactive) in [2]; above 100 µM in experiment [3]; > 100 µM (inactive) in experiment [4]; > 100 µM (inactive) in experiment [6]; > 100 µM (inactive) in experiment [7]. Further, the GI50 in [8] is > 100 µM (inactive); in [9], > 100 µM (inactive); in experiment [14], > 100 µM (inactive); in experiment [10] it was 31.8 µM (inactive); in [11] it was > 100 µM (inactive); in [12] it was > 100 µM (inactive). In addition, the GI50 in experiment [13] was > 100 µM (inactive).

For the compound `Cc1ccc(Sc2cc([N+](=O)[O-])cc(Sc3ccc(C)cc3)c2Sc2ccc(C)cc2)cc1`, the GI50 was 66.8 µM (inactive) in experiment [1]; > 100 µM (inactive) in experiment [2]; above 100 µM in [3]; > 100 µM (inactive) in experiment [4]; > 100 µM (inactive) in experiment [6]; 48.8 µM (inactive) in [8]. Moreover, the GI50 in experiment [9] is > 100 µM (inactive); in experiment [11], > 100 µM (inactive); in [13] it was 74.6 µM (inactive).

Source of the values: ChEMBL document CHEMBL1201862, “PubChem BioAssay data set” (2004).
